Measured values published in patent US20200022967A1, “Use of 2-carboxamide cycloamino urea derivatives in the treatment of EGFR dependent diseases or diseases that have acquired resistance to agents that target EGFR family members” (Novartis AG, priority 2010, published 2020).

Experiments:
[1] = Body weight change in BT474 xenograft mice (Example 1); type: in vivo; details: for mean body weight change: not significant; for mean change of body weight: 50 mg/kg p.o. once daily, p<0.05
Description: (§1) Tumor volumes were measured with calipers and determined according to the formula: length×diameter^2×π/6. […] Regressions (%) were calculated according to the formula ((mean tumor volume at end of treatment-mean tumor volume at start of treatment)/mean tumor volume at start of treatment)×100. Body weights and tumor volumes were recorded twice a week.
(§2) Where applicable, data is presented as mean±SEM. For all tests, the level of significance was set at p<0.05. For tumor volumes, comparisons between treatment groups and vehicle control group were done using one-way ANOVA followed by Dunnett's test. The level of significance of body weight change within a group between the start and the end of the treatment period was determined using a paired t-test. Comparisons of delta body weights between treatment and vehicle control groups were performed by a one-way ANOVA followed by a post hoc Dunnett's test.

BT-474 tumors [2] = assay: BT474 orthotopic breast cancer xenograft, antitumor activity (Example 1); type: in vivo, mice
Description: Experiments were performed in female HsdNpa:Athymic Nude-nu mice approximately 8-12 weeks of age at treatment start. All animals were housed under Optimized Hygienic conditions in Makrolon type III cages (max. 10 animals per cage) with free access to food and water.
BT-474 cells, which are human breast ductal carcinoma cells and ErbB2 amplified with a PIK3CA mutation K111N, were grown in DMEM culture medium containing 4.5 g/l glucose supplemented with 10% heat-inactivated FCS, 2 mM L-glutamine, 1 mM sodium pyruvate and incubated at 37° C. in a 5% CO2 humidified atmosphere. Cell culture reagents were purchased from BioConcept (Allschwil, Switzerland).
BT-474 tumors were established in vivo by injection 3×10^6 cells in 30 μl HBSS (Sigma # H8264) containing 1 mg/ml Matrigel (BD #34234) orthotopically into the 3rd mammary gland on the right side of the animals. The efficacy experiments started when the tumors reached an average size of approximately 130 mm^3 (day 14-16 post cell injection). The PK/PD experiment was performed when the tumors reached a size of 150-250 m m^3 (day 22 after cell injection). On the day of cell injection, a 0.025 17β Estradiol pellent has been implanted subcutaneously on the left flank into each experimental animal under Forene® inhalation narcosis.
The Compound was fully dissolved in NMP. Then, PEG300 and liquified Solutol were added (in sequence with vortexing after addition of each reagent). Water was added immediately prior to administration to the animals. Compound A or vehicle was administered orally at a volume of 10 ml/kg.
as §1, §2
In the first experiment, Compound A was orally administered daily to BT-474 orthotopic xenografts, tumor-bearing nude mice at a dose of 50 mg/kg. […] Compound A administered orally at 50 mg/kg once daily produces a mean tumor change of tumor volume of −29.7±15.6 mm^3 (p<0.01, ANOVA and post-hoc Dunnett's) as compared to vehicle (mean tumor change of 315.1±16.4 mm^3), with a 23.0% regression in the first experiment.
In a second experiment, Compound A was orally administered daily to BT-474 orthotopic xenografts, tumor-bearing nude mice at doses of 12.5, 25 and 50 mg/kg. […] (See FIG. 1). Compound A administered orally at 12.5, 25 and 50 mg/kg once daily produces a mean change of tumor volume of 171.8±33.0 mm^3 (p<0.01, ANOVA and post-hoc Dunnett's), 95.5±26.5 mm^3 (p<0.01, ANOVA and post-hoc Dunnett's), and 20.8±15.9 mm^3 (p<0.01, ANOVA and post-hoc Dunnett's) respectively as compared to vehicle (mean change of tumor volume of 557.7±79.0 mm^3) in the second experiment. (See FIG. 3)

[3] = Body weight nadir and deaths in NCI-N87 lapatinib study (Example 6)
Description: Treatments started eight days post tumor cell implantation and lasted for 59 consecutive days or until tumor volume=1000 mm^3. […] For the b.i.d. dosing schedule, the first dose was given p.m. on Day 1 and last dose a.m. on Day 22. […] Body weights were recorded on Days 1-5, on each treatment day (except weekends), and twice weekly thereafter until end of the study.

[4] = Body weight nadir and deaths in NCI-N87 trastuzumab study (Example 4); type: in vivo, mice
Source text: Treatments started 9 days post tumor cell implantation and lasted for 30 consecutive days (or until tumor volume=2000 mm^3).

BT-474 tumors [5] = assay: BT474 orthotopic xenograft, Compound A and trastuzumab combination (Example 3); type: in vivo, mice
Description: The Compound was fully dissolved in NMP. Then, PEG300 and liquified Solutol were added (in sequence with vortexing after addition of each reagent).
Where applicable, data is presented as mean±SEM.

BT474 = assay: Cell proliferation in BT474 breast cancer model; type: cell-based, human
[6] = Body weight in BT474 combination study (Example 3); type: in vivo, mice; details: Compound A 50 mg/kg p.o. daily, single agent; significant
Description: as §1, §2

[7] = Body weight change in NCI-N87 xenograft mice (Example 2); type: in vivo; details: 50 mg/kg p.o. once daily; not significant
Description: as §1, §2

HBCx-5 xenograft tumor = assay: HBCx-5 breast cancer xenograft, antitumor activity (Example 5); type: in vivo, mice; details: Compound A 50 mg/kg p.o. daily for 42 days, single agent; p<0.001
Description: Compound A was suspended at mg/ml in 0.5% methylcellulose (Sigma Aldrich, St. Louis, Mo.). It was homogenized by stirring vortexing and sonication. The suspension was stored at 4° C. for 7 days protected from light. […] Stock solution at 21 mg/ml was diluted just before administration at 1 mg/ml with sterile water for injection. Capecitabine (Xeloda®, Roche) at […] was kept at 4° C. protected from light. Capecitabine pellets were crushed and suspended in NaCl 0.9%.
Dose was body weight adjusted at each injection.
Capecitabine was administered by oral gavage (p.o.) at […], five times per week for two weeks (i.e., five consecutive dosing days/week). After a one week rest, a second treatment cycle was performed.

[8] = Group 2: Compound A 12.5 mg/kg p.o. once daily
[9] = Group 3: Compound A 25 mg/kg p.o. once daily
[10] = Group 4: Compound A 50 mg/kg p.o. once daily

For `Cc1nc(NC(=O)N2CCC[C@H]2C(N)=O)sc1-c1ccnc(C(C)(C)C(F)(F)F)c1` [Compound A, (S)-Pyrrolidine-1,2-dicarboxylic acid 2-amide 1-({4-methyl-5-[2-(2,2,2-trifluoro-1,1-dimethyl-ethyl)-pyridin-4-yl]-thiazol-2-yl}-amide)], which “mean body weight change” value ([1]; 12.5 mg/kg p.o. once daily) is on record?
The value was 1.4±1.2%.

And the “mean body weight change” value ([1]; 25 mg/kg p.o. once daily)?
Its value is −1.2±1.2%.

What about the “mean change of body weight” value ([1]; first of the two experiments) of the same compound?
Its value is 10.6±4.1%.

What about the “mean change of body weight” value ([1]; second of the two experiments) of the same compound?
Its value is 8.2±2.6%.

What about the “antitumor effect as compared to vehicle” value (BT-474 tumors [2]; 12.5, 25 and 50 mg/kg p.o. once daily, p<0.05 ANOVA) of the same compound?
The value was “statistically significant antitumor effect”.

And the regression (BT-474 tumors [2]; first experiment, 50 mg/kg p.o. once daily)?
The regression was 23.0%.

And the “mean change of tumor volume” value (BT-474 tumors [2]; first experiment, 50 mg/kg p.o. once daily, vehicle 315.1±16.4)?
The value was −29.7±15.6 mm^3.

And the “mean change of tumor volume” value (BT-474 tumors [2]; second experiment, 12.5 mg/kg p.o. once daily, vehicle 557.7±79.0)?
The value was 171.8±33.0 mm^3.

What about the “mean change of tumor volume” value (BT-474 tumors [2]; second experiment, 25 mg/kg p.o. once daily, vehicle 557.7±79.0) of the same compound?
Its value is 95.5±26.5 mm^3.

What about the “mean change of tumor volume” value (BT-474 tumors [2]; second experiment, 50 mg/kg p.o. once daily, vehicle 557.7±79.0) of the same compound?
Its value is 20.8±15.9 mm^3.

What about the “Deaths NTR = non-treatment related” value [3, 8] of the same compound?
Its value is “NTR: 1”.

And the “Deaths TR = treatment-related” value [3, 8]?
The value was “TR: 1”.

And the “Deaths NTR = non-treatment related” value [3, 9]?
Its value is “NTR: 1”.

And the “Deaths TR = treatment-related” value [3, 9]?
Its value is “TR: 1”.

What about the “Mean BW Nadir (lowest group mean BW)” value ([3]; Group 3: Compound A 25 mg/kg p.o. once daily, Day 14) of the same compound?
The value was −8.4%.

What about the “Deaths (TR/NTR)” value ([4]; Group 2 (8 animals): Compound A 12.5 mg/kg p.o. once daily) of the same compound?
Its value is 0.

And the “Mean BW Nadir (lowest group mean BW)” value ([4]; Group 2: Compound A 12.5 mg/kg p.o. once daily, Day 22)?
The value was −7% (Day 22).

What about the “Deaths NTR = non-treatment related” value [4, 9] of the same compound?
The value was “NTR: 1”.

And the “Deaths TR = treatment-related” value [4, 9]?
The value was “TR: 1”.

And the “Mean BW Nadir (lowest group mean BW)” value ([4]; Group 3: Compound A 25 mg/kg p.o. once daily, Day 26)?
Its value is −12.2% (Day.

And the “Deaths NTR = non-treatment related” value [4, 10]?
The value was “NTR: 0”.

And the “Deaths TR = treatment-related” value [4, 10]?
Its value is “TR: 4”.

And the “Mean BW Nadir (lowest group mean BW)” value ([4]; Group 4: Compound A 50 mg/kg p.o. once daily, Day 12)?
Its value is −13.1% (Day.

What about the “Change Tumor Volume” value (BT-474 tumors [5]; B: Compound A 12.5 mg/kg p.o. daily, control C 584.2) of the same compound?
The value was 125.7.

What about the T/C (BT-474 tumors [5]; Compound A 12.5 mg/kg p.o. daily, single agent) of the same compound?
Its T/C is 21.5%.

And the antitumor effect (BT-474 tumors [5]; Compound A 50 mg/kg p.o. daily, single agent, p<0.05 Mann-Whitney)?
Its antitumor effect is “statistically significant antitumor effect”.

And the B/C (BT-474 tumors [5]; change tumor volume ratio, Compound A 12.5 mg/kg vs control)?
The B/C was 0.215.

And the cell death (BT474; BT474, overexpressed ErbB2)?
Its cell death is “induces cell death”.

And the GI50 (BT474; BT474 breast cancer model, ErbB2 amplified, read-out: median GI50)?
Its GI50 is 139 ± 82 nM.

What about the body weight loss [6] of the same compound?
Its body weight loss is “about 12%”.

What about the “mean change of body weight” value [7] of the same compound?
Its value is 3.8±2.1%.

And the T/C (HBCx-5 xenograft tumor)?
The T/C was 17.57%.
